Experimental data reported in patent US11980596B2 (priority 2017, dated 2024).

Key:
[1] = test system: patients with treatment-resistant depression (TRD); experiment: MADRS total score, response and remission (Example 7, phase 2 dose-response study); format: in vivo, human; details: for MADRS: treatment difference relative to placebo: day 15, completers, same treatment 2 weeks; for MADRS: LS mean difference vs placebo, range over dose groups: 28, 56, 84 mg
Description: At the beginning of double-blind Period 1, eligible participants were randomized (3:1:1:1) to intranasal placebo or esketamine 28, 56, or 84 mg, twice weekly (days 1 and 4) based on the first of two computer-generated randomization schedules (Period 1 and Period 2). Randomization was balanced by using randomly permuted blocks and stratified by study center. At the end of Period 1, those randomized to placebo who had moderate-to-severe symptoms (assessed by Quick Inventory of Depressive Symptomatology-Self Report (Trivedi 2016 and Rush, “The 16-item Quick Inventory of Depressive Symptomatology (QIDS) Clinician Rating (QIDS-C) and Self-Report (QIDS-SR): A psychometric evaluation in patients with chronic major depression”, Biol. Psychiatry, 2003, 54(5):573-583) [QIDS-SR16] total score: moderate, 11-16; severe, >16) were re-randomized (1:1:1:1) to intranasal esketamine 28, 56, or 84 mg or placebo, twice weekly (days 8 and 11), while those having mild or no symptoms continued on placebo. To maintain the blind, all participants completed an identical process prior to entry into Period 2, whether or not they were re-randomized. Regardless of response in the double-blind phase, all participants were eligible to enter the optional open-label phase. Esketamine (56 mg) was administered on the first day of the open-label phase (study day 15); subsequent doses could be adjusted (range: 28 to 84 mg) based on investigator's clinical judgment, with administration twice weekly for first 2 weeks, weekly for next 3 weeks, then every 2 weeks thereafter.
Efficacy was assessed with the Montgomery-Asberg Depression Rating Scale (MADRS; Montgomery, “A new depression scale designed to be sensitive to change”, Br. J. Psychiatry, 1979, 134:382-389; Williams, “Development and reliability of a structured interview guide for the Montgomery Asberg Depression Rating Scale (SIGMA)”, Br. J. Psychiatry, 2008, 192(1):52-58) on days 1 (pre-dose and 2 hour post-dose), 2, 8 (pre-dose), 9, and 15, using the structured interview guide (SIGMA). See, Williams 2008.
The primary efficacy endpoint—change from baseline (pre-dose, day 1 in each period) to endpoint (day 8 in each period) in MADRS total score—was analyzed using the analysis of covariance (ANCOVA) model. For Period 1, the model included treatment and country as factors, and baseline MADRS total score as covariate. For Period 2, the model included treatment and country as factors, Period 2 baseline QIDS-SR16 score (moderate or severe), and Period 2 baseline MADRS total score as a continuous covariate.
Given the consistency between Periods 1 and 2 results (Chi 2016), esketamine dose groups were compared to placebo using a combined test on the weighted test statistics for each period in the double-blind treatment phase. A dose-response analysis on primary efficacy endpoint was performed using data combined from both periods. The Multiple Comparison Procedure—Modelling (MCP-Mod) methodology was performed (Williams 2008; Bretz, “Combining multiple comparisons and modeling techniques in dose-response studies”, Biometrics, 2005, 61:738-748).

[2] = test system: patients with treatment-resistant depression (TRD); experiment: GAD-7 (Example 7); format: in vivo, human
Description: Overall illness severity was assessed on the Clinical Global Impression of Severity (CGI-S) scale (Guy, “ECDEU Assessment Manual for Psychopharmacology—Revised (DHEW Publ No ADM 76-338)”, Rockville, Md.: U.S. Department of Health, Education, and Welfare, Public Health Service, Alcohol, Drug Abuse, and Mental Health Administration, NIMH Psychopharmacology Research Branch, Division of Extramural Research Programs; 1976, pp 218-222). Participants assessed their severity of anxiety on the Generalized Anxiety Disorder 7-item (GADS-7) Scale (See, Tables 157 and 158). See, Spitzer, “A brief measure for assessing generalized anxiety disorder—the GAD-7”, Arch. Intern. Med., 2006, 166(10): 1092-1097.

[3] = Pharmacokinetics of intranasal esketamine in healthy subjects (Example 9)
Description: Blood samples (4 mL each) for determination of esketamine and noresketamine plasma concentrations were collected into the appropriate collection tube (e.g., Vacutainer®) at timepoints 0.00, 0.12, 0.20, 0.37, 0.53, 0.67, 0.83, 1.00, 1.25, 1.50, 2.00, 3.00, 4.00, 6.00, 9.00, 12.00, 18.00, and 24.00 h. The total amount of blood to be drawn for clinical laboratory tests and PK evaluations is approximately 327 mL.
Plasma samples were analyzed for esketamine and noresketamine concentrations using the validated, specific and sensitive liquid chromatography coupled to tandem mass spectrometry (LC-MS/MS) achiral method of Example 8.
Serial PK blood samples (4 mL each) were collected for a 24-hour period from each subject (Periods 1, 2, and 3). […] Statistical Methods 1.6.4.1. Sample Size
The following key parameters of esketamine and noresketamine in plasma were calculated using noncompartmental methods and actual sampling times: Cmax, tmax, AUClast, AUC∞, t1/2,λ, and λz.

[4] = test system: rat liver cells; experiment: In vivo Comet assay; details: intravenously-administered
[5] = test system: adult subjects with TRD; details: post dose
Description: The CADSS is an instrument for the measurement of present-state dissociative symptoms, and was administered to assess treatment-emergent dissociative symptoms. The CADSS consists of 23 subjective items, divided into 3 components: Depersonalization (Items 3 to 7, 20, and 23), derealization (Items 1, 2, 8 to 13, 16 to 19, and 21) and amnesia (Items 14, 15, and 22). Participant's responses were coded on a 5-point scale (0=not at all through to 4=extremely).
The Clinician Administered Dissociative States Scale (CADSS) was measured prior to the start of each dose, at 40 minutes, and 1.5 hours postdose.

[6] = test system: CYP2B6, CYP3A4, CYP1A2; experiment: CYP induction in human hepatocytes
[7] = Screening in vitro micronucleus test; details: in the presence of metabolic activation
[8] = OL endpoint - day 74, Placebo/Esketamine/OL Esketamine
[9] = Period 1, study period endpoint, esketamine 28 mg
[10] = Period 2, 2 hours, esketamine 84 mg
[11] = Period 2, 24 hours, esketamine 84 mg
[12] = Period 2, study period endpoint, esketamine 84 mg
[13] = Week 8 (Follow-up), Placebo/Esketamine/OL Esketamine

SMILES: CN[C@]1(c2ccccc2Cl)CCCCC1=O [esketamine, (S)-2-(2-chlorophenyl)-2-(methylamino)cyclohexanone]
- MADRS: treatment difference relative to placebo ([1]; 28 mg): −6.0
- MADRS: treatment difference relative to placebo ([1]; 56 mg): −8.3
- Proportion of responders (MADRS) ([1]; 84 mg, Period 2 endpoint): 50.0%
- Remitted (MADRS) ([1]; 84 mg, after 2 weeks of treatment): 40.0%
- MADRS response (≥50% improvement), % [1, 8]: 50.0%
- Remission (MADRS ≤10): No, % [1, 8]: 60.0%
- Remission (MADRS ≤10): Yes, % [1, 8]: 40.0%
- MADRS response (≥50% improvement), % ([1]; OL endpoint - day 74, Placebo/Placebo/OL Esketamine): 100%
- MADRS Remitters, % ([1]; Period 1, 2 hours, esketamine 84 mg): (25.0) %
- MADRS Remitters, % ([1]; Period 1, 24 hours, esketamine 84 mg): (25.0) %
- MADRS Remitters, % [1, 9]: (9.1) %
- MADRS Responders, % [1, 9]: (9.1) %
- MADRS Remitters, % ([1]; Period 1, study period endpoint, esketamine 56 mg): (9.1) %
- MADRS Remitters, % ([1]; Period 1, study period endpoint, esketamine 84 mg): (25.0) %
- MADRS: LS mean difference vs placebo, range over dose groups ([1]; Period 1): −5.0 to −10.5
- MADRS Remitters, % [1, 10]: (40.0) %
- MADRS Responders, % [1, 10]: (40.0) %
- MADRS Remitters, % [1, 11]: (20.0) %
- MADRS Responders, % [1, 11]: (40.0) %
- MADRS Remitters, % [1, 12]: (20.0) %
- MADRS Responders, % [1, 12]: (20.0) %
- MADRS: LS mean difference vs placebo, range over dose groups ([1]; Period 2): −3.1 to −6.9
- MADRS response (≥50% improvement), % [1, 13]: 25.0%
- Remission (MADRS ≤10): No, % [1, 13]: 75.0%
- Remission (MADRS ≤10): Yes, % [1, 13]: 25.0%
- GAD-7 change from baseline, LS mean (SE) ([2]; Period 1, esketamine 28 mg intranasal): −1.5 (1.34)
- GAD-7 change from baseline, LS mean (SE) ([2]; Period 1, esketamine 56 mg intranasal): −3.1 (1.34)
- GAD-7 change from baseline, LS mean (SE) ([2]; Period 1, esketamine 84 mg intranasal): −5.1 (1.30)
- GAD-7 change from baseline, LS mean (SE) ([2]; Period 2, esketamine 28 mg intranasal): −1.6 (0.87)
- GAD-7 change from baseline, LS mean (SE) ([2]; Period 2, esketamine 56 mg intranasal): 1.0 (0.98)
- GAD-7 change from baseline, LS mean (SE) ([2]; Period 2, esketamine 84 mg intranasal): −0.9 (1.02)
- Dose proportionality of mean plasma Cmax and AUC ([3]; 28-mg, 56-mg and 84-mg intranasal regimens): less than dose-proportional
- AUC (AUClast and AUC∞) variability ([3]; esketamine): 25.0% to 30.4
- Cmax variability (percent coefficient of variation) ([3]; esketamine, across the 3 treatment groups): 35.7% to 36.7
- Genotoxicity [4]: devoid of genotoxic properties
- Dissociative and perceptual change symptoms (CADSS) resolved by [5]: ≤ 1.5 h
- S-Ketamine QC sample long-term storage stability (at −20° C.): 707 days at −20 °C
- S-Ketamine QC sample freeze/thaw stability (freeze (−20° C.)/thaw (room temperature)): 3 freeze (−20° C.)/thaw (room temperature) cycles
- S-Ketamine QC sample bench-top stability (room temperature): 18 hours at room temperature
- Induction of CYP1A2 ([6]; hepatocytes): do not induce
- Induction of CYP2B6 and CYP3A4 ([6]; human hepatocytes): modest induction effects
- Genotoxicity [7]: Genotoxic effects
